Measured values published in patent US20240277698A1, “METHODS OF USING ALDOSTERONE SYNTHASE INHIBITORS” (CINCOR PHARMA, INC., priority 2021, published 2024).
Where two headings read alike, the source gives them in different places.

Experiment: Multiple-ascending dose (MAD) study, once daily for 10 days in healthy subjects: plasma pharmacokinetics
Type: in vivo, human
Conditions: for AUC extrap / CLss/F / RAUC (accumulation ratio AUC0-tau/AUC0-24h) / RCmax (accumulation ratio Cmax, D10/Cmax, D1) / AUC(0-t) / Cmax / AUC(0-inf) / AUC / Vd/F / half-life: mean (CV %); for AUC(0-t): read-out: AUC0-24 h; for AUC: read-out: AUC0-tau; for Vd/F: read-out: Vss/F; for half-life: read-out: t½ (converted)
Procedure: This was a randomized, double-blind study to assess the safety, tolerability, PK, and PD of multiple oral doses of (R)-compound 1 when administered to healthy adult subjects. The study consisted of 5 cohorts, with up to 12 subjects per cohort. Subjects were randomized in a 3:1 ratio to (R)-compound 1 or placebo once daily for 10 days as follows: • Cohort 1: 2.5 mg (R)-compound 1 or matching placebo (low salt diet in 9 subjects receiving (R)-compound 1 and 3 subjects receiving placebo); • Cohort 2: 5.0 mg (R)-compound 1 or matching placebo (low salt diet in 9 subjects receiving (R)-compound 1 and 3 subjects receiving placebo); • Cohort 3: 1.5 mg (R)-compound 1 or matching placebo (normal salt diet in 9 subjects receiving (R)-compound 1 and 3 subjects receiving placebo); • Cohort 4: 2.5 mg (R)-compound 1 or matching placebo (normal salt diet in 6 subjects receiving (R)-compound 1 and 2 subjects receiving placebo); and • Cohort 5: 0.5 mg (R)-compound 1 or matching placebo (normal salt diet in 9 subjects receiving (R)-compound 1 and 3 subjects receiving placebo).
For each subject, the study consisted of: • A screening period of up to 28 days; • A 5-day inpatient run-in period during which subjects adhered to a controlled, standardized diet and underwent baseline PD assessments; • A 15-day inpatient treatment period, during which subjects received (R)-compound 1 or placebo once daily for 10 days while adhering to a controlled, standardized diet, followed by PK and PD sampling over an additional 5 days; and • A follow-up visit 3 days (1 day) after discharge from the clinical unit. • A cortisol stimulation test (Cohorts 1 and 2 only) and standing aldosterone assessment (all cohorts) were performed on Days 1 and 10. Serial blood samples for PK and PD were obtained prior to and at specified time points over 24 hours after dosing on Day 1 as well as prior to and at specified time points over 120 hours after dosing on Day 10. In addition, blood samples for PK were collected prior to dosing on Days 8 and 9. Urine for PK and PD measurements was collected over 24 hours starting just prior to dosing on Day 1 as well as over 120 hours starting just prior to dosing on Day 10.
Study subjects were dosed with (R)-compound 1 (oral drinking solution) or matching placebo. The doses of (R)-compound 1 administered were 2.5 and 5.0 mg with a low salt diet and 1.5, 2.5, and 0.5 mg with a normal salt diet.
(only for (R)-compound 1).

[1] = 0.5 mg QD, normal salt diet, Day 10
[2] = 1.5 mg QD, normal salt diet, Day 10
[3] = 2.5 mg QD, low salt diet, Day 10
[4] = 2.5 mg QD, normal salt diet, Day 10
[5] = 5.0 mg QD, low salt diet, Day 10
[6] = human, plasma, oral, 0.5 mg, 0.5 mg QD, normal salt diet, Day 10
[7] = human, plasma, oral, 1.5 mg, 1.5 mg QD, normal salt diet, Day 10
[8] = human, plasma, oral, 2.5 mg, 2.5 mg QD, low salt diet, Day 10
[9] = human, plasma, oral, 2.5 mg, 2.5 mg QD, normal salt diet, Day 10
[10] = human, plasma, oral, 5 mg, 5.0 mg QD, low salt diet, Day 10

Q: With `CCC(=O)N[C@@H]1CCCc2c(-c3ccc4c(c3)CCC(=O)N4C)cncc21` [(R)-Compound 1, (R)—N-(4-(1-methyl-2-oxo-1,2,3,4-tetrahydroquinolin-6-yl)-5,6,7,8-tetrahydroisoquinolin-8-yl)propionamide] as the molecule, how does the AUC extrap [1] read?
A: 6.325 (42.2) %

Q: And the CLss/F [1]?
A: 3.421 (29.4) L/h

Q: What about the “RAUC (accumulation ratio AUC0-tau/AUC0-24h)” value (0.5 mg QD, normal salt diet) of the same molecule?
A: 1.960 (13.9)

Q: What about the “RCmax (accumulation ratio Cmax, D10/Cmax, D1)” value (0.5 mg QD, normal salt diet) of the same molecule?
A: 1.827 (14.2)

Q: What about the AUC extrap [2] of the same molecule?
A: 6.106 (65.9) %

Q: What about the CLss/F [2] of the same molecule?
A: 3.350 (27.5) L/h

Q: And the “RAUC (accumulation ratio AUC0-tau/AUC0-24h)” value (1.5 mg QD, normal salt diet)?
A: 2.307 (13.8)

Q: What about the “RCmax (accumulation ratio Cmax, D10/Cmax, D1)” value (1.5 mg QD, normal salt diet) of the same molecule?
A: 2.132 (11.2)

Q: And the AUC extrap [3]?
A: 4.519 (45.4) %

Q: What about the CLss/F [3] of the same molecule?
A: 3.277 (16.1) L/h

Q: And the “RAUC (accumulation ratio AUC0-tau/AUC0-24h)” value (2.5 mg QD, low salt diet)?
A: 2.147 (7.4)

Q: What about the “RCmax (accumulation ratio Cmax, D10/Cmax, D1)” value (2.5 mg QD, low salt diet) of the same molecule?
A: 1.965 (15.1)

Q: What about the AUC extrap [4] of the same molecule?
A: 3.832 (85.6) %

Q: What about the CLss/F [4] of the same molecule?
A: 4.315 (36.9) L/h

Q: What about the “RAUC (accumulation ratio AUC0-tau/AUC0-24h)” value (2.5 mg QD, normal salt diet) of the same molecule?
A: 1.994 (22.3)

Q: And the “RCmax (accumulation ratio Cmax, D10/Cmax, D1)” value (2.5 mg QD, normal salt diet)?
A: 1.706 (34.1)

Q: And the AUC extrap [5]?
A: 5.397 (52.6) %

Q: What about the CLss/F [5] of the same molecule?
A: 3.207 (26.3) L/h

Q: And the “RAUC (accumulation ratio AUC0-tau/AUC0-24h)” value (5.0 mg QD, low salt diet)?
A: 2.507 (10.2)

Q: And the “RCmax (accumulation ratio Cmax, D10/Cmax, D1)” value (5.0 mg QD, low salt diet)?
A: 2.424 (13.6)

Q: What about the AUC(0-t) (human, plasma, oral, 0.5 mg, 0.5 mg QD, normal salt diet, Day 1) of the same molecule?
A: 79.5 ng·h/mL

Q: What about the Cmax (human, plasma, oral, 0.5 mg, 0.5 mg QD, normal salt diet, Day 1, read-out: Cmax, D 1) of the same molecule?
A: 5.36 ng/mL

Q: What about the Tmax (human, plasma, oral, 0.5 mg, 0.5 mg QD, normal salt diet, Day 1, median (min, max), read-out: Tmax, D 1) of the same molecule?
A: 2 h

Q: What about the AUC(0-inf) [6] of the same molecule?
A: 351 ng·h/mL

Q: What about the AUC [6] of the same molecule?
A: 155 ng·h/mL

Q: And the Cmax (human, plasma, oral, 0.5 mg, 0.5 mg QD, normal salt diet, Day 10, read-out: Cmax, D 10)?
A: 9.72 ng/mL

Q: What about the Vd/F [6] of the same molecule?
A: 152 L

Q: And the Tmax (human, plasma, oral, 0.5 mg, 0.5 mg QD, normal salt diet, Day 10, median (min, max), read-out: Tmax, D 10)?
A: 2 h

Q: What about the AUC(0-t) (human, plasma, oral, 1.5 mg, 1.5 mg QD, normal salt diet, Day 1) of the same molecule?
A: 205 ng·h/mL

Q: And the Tmax (human, plasma, oral, 1.5 mg, 1.5 mg QD, normal salt diet, Day 1, median (min, max), read-out: Tmax, D 1)?
A: 2.5 h

Q: And the AUC(0-inf) [7]?
A: 1110 ng·h/mL

Q: What about the AUC [7] of the same molecule?
A: 480 ng·h/mL

Q: What about the Vd/F [7] of the same molecule?
A: 137 L

Q: What about the Tmax (human, plasma, oral, 1.5 mg, 1.5 mg QD, normal salt diet, Day 10, median (min, max), read-out: Tmax, D 10) of the same molecule?
A: 2.5 h

Q: And the AUC(0-t) (human, plasma, oral, 2.5 mg, 2.5 mg QD, low salt diet, Day 1)?
A: 366 ng·h/mL

Q: What about the Tmax (human, plasma, oral, 2.5 mg, 2.5 mg QD, low salt diet, Day 1, median (min, max), read-out: Tmax, D 1) of the same molecule?
A: 3 h

Q: And the AUC(0-inf) [8]?
A: 1490 ng·h/mL

Q: And the AUC [8]?
A: 783 ng·h/mL

Q: What about the Cmax (human, plasma, oral, 2.5 mg, 2.5 mg QD, low salt diet, Day 10, read-out: Cmax, D 10) of the same molecule?
A: 54 ng/mL

Q: What about the Vd/F [8] of the same molecule?
A: 135 L

Q: And the Tmax (human, plasma, oral, 2.5 mg, 2.5 mg QD, low salt diet, Day 10, median (min, max), read-out: Tmax, D 10)?
A: 2 h

Q: What about the AUC(0-t) (human, plasma, oral, 2.5 mg, 2.5 mg QD, normal salt diet, Day 1) of the same molecule?
A: 344 ng·h/mL

Q: And the Tmax (human, plasma, oral, 2.5 mg, 2.5 mg QD, normal salt diet, Day 1, median (min, max), read-out: Tmax, D 1)?
A: 3 h

Q: And the AUC(0-inf) [9]?
A: 1460 ng·h/mL

Q: What about the AUC [9] of the same molecule?
A: 677 ng·h/mL

Q: What about the Vd/F [9] of the same molecule?
A: 150 L

Q: What about the Tmax (human, plasma, oral, 2.5 mg, 2.5 mg QD, normal salt diet, Day 10, median (min, max), read-out: Tmax, D 10) of the same molecule?
A: 3 h

Q: And the AUC(0-t) (human, plasma, oral, 5 mg, 5.0 mg QD, low salt diet, Day 1)?
A: 658 ng·h/mL

Q: And the AUC(0-inf) [10]?
A: 3480 ng·h/mL

Q: What about the AUC [10] of the same molecule?
A: 1660 ng·h/mL

Q: What about the Vd/F [10] of the same molecule?
A: 134 L

Q: What about the Tmax (human, plasma, oral, 5 mg, 5.0 mg QD, low salt diet, Day 10, median (min, max), read-out: Tmax, D 10) of the same molecule?
A: 3 h

Q: And the Tmax (human, plasma, oral, 0.5 to 5 mg QD, read-out: median Tmax, range across treatment groups)?
A: 0.98 to 4 h

Q: And the half-life (human, plasma, oral, 1.5 mg QD, normal salt diet, Day 10)?
A: 29.9 h

Q: And the half-life (human, plasma, oral, 2.5 mg QD, normal salt diet, Day 10)?
A: 25.5 h

Q: What about the half-life (human, plasma, oral, 5.0 mg QD, low salt diet, Day 10) of the same molecule?
A: 29.4 h

Q: What about the half-life at 10 days (human, plasma, oral, approximately, read-out: mean t½, range) of the same molecule?
A: 26 to 31 h

Q: And the “time after dosing within which peak concentrations typically observed” value (oral administration)?
A: ≤ 4 h
